Experimental data published in article PMC9326368, “A Novel PARP Inhibitor YHP-836 For the Treatment of BRCA-Deficiency Cancers” (Frontiers in Pharmacology, 2022).

Tests used:
PARP1 = PARP1 (Homo sapiens, UniProt P09874); test: PARP1 enzymatic assay on histone-coated plate with NAD+, PAR product detection; type: biochemical
PARP2 = PARP2 (Homo sapiens, UniProt Q9UGN5); test: PARP2 enzymatic assay on histone-coated plate with NAD+, PAR product detection; type: biochemical
Sequence of PARP2 (Q9UGN5 whole entry): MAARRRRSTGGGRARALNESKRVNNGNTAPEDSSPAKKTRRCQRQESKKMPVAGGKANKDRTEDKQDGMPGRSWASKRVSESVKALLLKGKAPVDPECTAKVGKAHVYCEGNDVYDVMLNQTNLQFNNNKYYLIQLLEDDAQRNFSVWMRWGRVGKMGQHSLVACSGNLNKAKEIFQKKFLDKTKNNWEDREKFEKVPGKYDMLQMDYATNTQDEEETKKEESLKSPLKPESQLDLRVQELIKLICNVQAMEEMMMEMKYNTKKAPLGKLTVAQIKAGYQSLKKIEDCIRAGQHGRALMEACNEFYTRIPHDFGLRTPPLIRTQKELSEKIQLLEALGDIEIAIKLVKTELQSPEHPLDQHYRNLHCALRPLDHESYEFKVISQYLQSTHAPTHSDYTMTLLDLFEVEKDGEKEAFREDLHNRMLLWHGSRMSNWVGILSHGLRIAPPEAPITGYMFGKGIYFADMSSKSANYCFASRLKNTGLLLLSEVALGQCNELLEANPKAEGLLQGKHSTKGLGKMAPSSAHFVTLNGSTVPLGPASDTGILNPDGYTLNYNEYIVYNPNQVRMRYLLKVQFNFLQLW

Sequence of PARP1 (P09874 2-1014): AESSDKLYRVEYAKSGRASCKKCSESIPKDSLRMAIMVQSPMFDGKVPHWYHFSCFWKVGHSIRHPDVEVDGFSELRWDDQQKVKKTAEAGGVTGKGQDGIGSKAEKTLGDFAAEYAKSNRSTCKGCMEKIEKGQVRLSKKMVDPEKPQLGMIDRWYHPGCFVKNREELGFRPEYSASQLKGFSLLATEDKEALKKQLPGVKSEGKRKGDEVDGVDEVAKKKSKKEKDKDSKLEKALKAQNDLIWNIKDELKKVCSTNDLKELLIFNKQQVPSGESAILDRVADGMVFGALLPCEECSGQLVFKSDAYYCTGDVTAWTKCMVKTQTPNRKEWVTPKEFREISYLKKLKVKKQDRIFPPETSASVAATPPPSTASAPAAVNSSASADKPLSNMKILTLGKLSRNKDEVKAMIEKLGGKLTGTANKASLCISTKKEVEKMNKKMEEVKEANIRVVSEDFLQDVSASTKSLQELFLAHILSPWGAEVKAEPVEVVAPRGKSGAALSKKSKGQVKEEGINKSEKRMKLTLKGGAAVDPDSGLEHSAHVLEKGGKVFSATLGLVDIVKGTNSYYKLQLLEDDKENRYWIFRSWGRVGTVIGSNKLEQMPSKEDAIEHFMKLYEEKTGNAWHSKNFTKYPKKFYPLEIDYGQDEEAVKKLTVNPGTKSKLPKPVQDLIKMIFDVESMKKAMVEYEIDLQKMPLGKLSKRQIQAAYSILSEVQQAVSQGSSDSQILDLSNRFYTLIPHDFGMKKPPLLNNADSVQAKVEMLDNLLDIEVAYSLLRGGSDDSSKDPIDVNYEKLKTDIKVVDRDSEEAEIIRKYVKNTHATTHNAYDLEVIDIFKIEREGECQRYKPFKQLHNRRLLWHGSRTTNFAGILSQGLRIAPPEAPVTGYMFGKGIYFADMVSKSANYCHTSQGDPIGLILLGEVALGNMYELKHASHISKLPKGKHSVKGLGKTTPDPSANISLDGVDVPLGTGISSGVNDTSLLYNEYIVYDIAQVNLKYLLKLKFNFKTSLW

O=C(c1cc(Cn2c(=O)[nH]c(=O)c3ccccc32)ccc1F)N1CCN(CC(F)(F)F)CC1 [YHP-836]
IC50 (PARP1): 6.33 nM | IC50 (PARP2): 3.62 nM
